Eight compounds from patent publication US8859777B2, “4-fluoro-4-arylpiperdin-1-yl derivatives as mu opioid function moderators” (priority 2010, dated 2014) can be followed below.

pKi: −log10 of the molar value. Structures can show the parent of a compound that is named as a salt. Where two headings read alike, the source gives them in different places.

The target of this assay is T1, Mu opioid receptor (Homo sapiens, UniProt P35372).
T1 construct: expressed in transfected cells; host or cells: HEK-293
T1 sequence (P35372 whole entry): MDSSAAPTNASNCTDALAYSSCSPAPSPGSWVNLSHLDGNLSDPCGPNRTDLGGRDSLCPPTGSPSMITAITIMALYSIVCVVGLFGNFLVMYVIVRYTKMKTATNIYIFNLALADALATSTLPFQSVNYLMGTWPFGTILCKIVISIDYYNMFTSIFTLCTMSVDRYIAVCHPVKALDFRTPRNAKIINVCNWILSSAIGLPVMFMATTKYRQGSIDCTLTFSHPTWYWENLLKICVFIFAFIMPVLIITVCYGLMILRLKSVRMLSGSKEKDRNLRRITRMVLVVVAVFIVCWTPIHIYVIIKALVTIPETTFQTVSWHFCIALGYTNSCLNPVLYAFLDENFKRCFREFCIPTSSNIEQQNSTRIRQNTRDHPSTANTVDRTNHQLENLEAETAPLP
The assay is described as follows: Affinity for the Mu opioid receptor, [3H]diprenorphine radioligand binding. As for the experimental part:
Compounds of the invention were assayed for affinity for the Mu opioid receptor using the methodology described in Zhang et al. (J. Pharmacol. Exp. Ther., (1998) 286: 136-141). Compounds were assessed in human recombinant (HEK-293) cells using tritium labeled diprenorphine (0.4 nM) as the specific determinant and non-specific binding was assayed with naltrexone (1 μM). Cells were incubated for 120 minutes at 22° C. before isolation and radioactivity determination by scintillation counting. The IC50 values (concentration causing a half-maximal inhibition of control specific binding) and Hill coefficients (nH) were determined by non-linear regression analysis of the competition curves generated with mean replicate values using Hill equation curve fitting (Y=D+[(A−D)/(1+(C/C50)^nH)], where Y=specific binding, D=minimum specific binding, A=maximum specific binding, C=compound concentration, C50=IC50, and nH=slope factor). The inhibition constants (Ki) were calculated using the Cheng-Prusoff equation (Ki=IC50/(1+(L/KD)), where L=concentration of radioligand in the assay, and KD=affinity of the radioligand for the receptor). Each data point was obtained in duplicate and results are the mean value.

[1] abbreviates: human recombinant (HEK-293) cells, tritium labeled diprenorphine 0.4 nM, non-specific binding with naltrexone 1 μM, 120 minutes at 22° C., mean of duplicates, read-out: Affinity.

Consider `FC1(c2ccc(Cl)cc2)CCN(CCC(c2ccccc2)c2ccccc2)CC1` [Example 1, 4-(4-Chlorophenyl)-1-(3,3-diphenylpropyl)-4-fluoropiperidine Hydrochloride], for which the pKi under setting [1] was 5.00 to 6.00.

The compound `CC1CN(CC(Cc2ccccc2)(Cc2ccccc2)C(=O)O)CCC1(F)c1cccc(O)c1` (centres unmarked) [Example 15, 2,2-Dibenzyl 3-[4-(3-hydroxyphenyl)-4-fluoro-3-methylpiperidin-1-yl]propionic Acid Hydrochloride] had a pKi of more than 7.00.

Regarding `Cc1ccc(S(=O)(=O)Nc2cccc(C3(F)CCN(CCOc4ccccc4)CC3)c2)cc1` [Example 17, N-{3-[4-Fluoro-1-(2-phenoxyethyl)piperidin-4-yl]phenyl}-4-methyl-benzenesulfonamide Hydrochloride], the pKi was 6.00 to 7.00.

Regarding `O=C(O)C(Cc1ccccc1)(Cc1ccccc1)CN1CCC(F)(c2ccc(Cl)cc2)CC1` [Example 5, 2,2-Dibenzyl-3-[4-(4-chlorophenyl)-4-fluoropiperidin-1-yl]propionic acid Hydrochloride], the pKi under setting [1] was 5.00 to 6.00.

For the compound `CC1CN(CCOc2ccccc2)CCC1(F)c1cccc(O)c1` (centres unmarked) [Example 13, 4-fluoro-4-(3-Hydroxyphenyl)-3-methyl-1-(2-phenoxyethyl)piperidine Hydrochloride], the pKi is more than 7.00.

Regarding `CS(=O)(=O)Nc1cccc(C2(F)CCN(CCOc3ccccc3)CC2)c1` [Example 18, N-{3-[4-Fluoro-1-(2-phenoxyethyl)piperidin-4-yl]phenyl}methane-sulfonamide Hydrochloride], the pKi under setting [1] is 5.00 to 6.00.

For `CC(C)(C)NC(=O)Nc1cccc(C2(F)CCN(CCOc3ccccc3)CC2)c1` [Example 19, 1-tert-Butyl-3-{3-[4-fluoro-1-(2-phenoxyethyl)-piperidin-4-yl]phenyl}-urea], the pKi under setting [1] is 5.00 to 6.00.

Consider `Oc1cccc(C2(F)CCN(CCCC3CCCCC3)CC2)c1` [Example 11, 1-(3-Cyclohexylpropyl)-4-fluoro-4-(3-hydroxyphenyl)piperidine Hydrochloride], for which the pKi is more than 7.00.
